The source made the active and inactive calls. No cut-off for these calls is given here.
Tests used:
[1] = Drug metabolism in human BSMC cells assessed as intracellular H2S release by measuring increase in fluorescence index at 300 uM measured every 5 mins for 60 mins by WSP-1 dye based spectrofluorometric analysis; type: ADME, cell-based; settings: 1 h
[2] = Drug metabolism in human BSMC cells assessed as intracellular H2S release by measuring increase in fluorescence index at 100 uM measured every 5 mins for 60 mins by WSP-1 dye based spectrofluorometric analysis; type: ADME, cell-based; settings: 1 h
[3] = Inhibition of DNP-HAS-stimulated mast cell degranulation in rat RBL-2H3 cells assessed as reduction in beta-hexosaminidase release at 1 mM incubated for 5 mins followed by DNP-HAS stimulation for 1 hr by multiplate reader analysis; type: functional; settings: RBL-2H3, 1.083 h, time 65 min
[4] = (§1) Bronchodilatory activity in human BSMC cells assessed as induction of membrane hyperpolarization at 300 uM by spectrofluorometric analysis relative to NS1619; type: functional
[5] = system: RBL-2H3; assay: (§2) Inhibition of DNP-HAS-stimulated mast cell degranulation in rat RBL-2H3 cells assessed as reduction in beta-hexosaminidase release at 300 uM incubated for 5 mins followed by DNP-HAS stimulation for 1 hr by multiplate reader analysis; type: functional; settings: time 65.0 min
[6] = (§3) Bronchodilatory activity in human BSMC cells assessed as induction of membrane hyperpolarization at 100 uM by spectrofluorometric analysis relative to NS1619; type: functional
[7] = system: RBL-2H3; assay: (§4) Inhibition of DNP-HAS-stimulated mast cell degranulation in rat RBL-2H3 cells assessed as reduction in beta-hexosaminidase release at 100 uM incubated for 5 mins followed by DNP-HAS stimulation for 1 hr by multiplate reader analysis; type: functional; settings: time 65.0 min
[8] = system: BSMC; assay: as §1; type: functional
[9] = as §2; type: functional; settings: RBL-2H3, 1.083 h, time 65 min
[10] = system: BSMC; assay: as §3; type: functional
[11] = as §4; type: functional; settings: RBL-2H3, 1.083 h, time 65 min

Row | Drug metabolism [1] | Drug metabolism [2] | SMILES | inhibition [5] | other results
1 | Metabolite_Notdetected | Metabolite_Notdetected | CC1(C)O[C@@H]2C[C@H]3[C@@H]4CCC5=CC(=O)C=C[C@]5(C)[C@@]4(F)[C@@H](O)C[C@]3(C)[C@]2(C(=O)COC(=O)CCC(=O)Oc2ccc(C(N)=S)cc2)O1 |  | 
2 |  |  | O=C(O)c1cc(=O)c2c(OCC(O)COc3cccc4oc(C(=O)O)cc(=O)c34)cccc2o1 [CROMOLYN] |  | inhibition at 1000 µM [3]: 20%
3 | Metabolite_Detected | Metabolite_Notdetected | NC(=S)c1ccc(O)cc1 |  | 
4 |  |  | CC1(C)O[C@@H]2C[C@H]3[C@@H]4CCC5=CC(=O)C=C[C@]5(C)[C@@]4(F)[C@@H](O)C[C@]3(C)[C@]2(C(=O)CO)O1 | inactive | 
5 | Metabolite_Notdetected | Metabolite_Notdetected | Oc1ccc(-c2cc(=S)ss2)cc1 |  | 
6 |  |  | CCCCC(=O)O[C@]1(C(=O)CO)[C@@H](C)C[C@H]2[C@@H]3CCC4=CC(=O)C=C[C@]4(C)[C@@]3(F)[C@@H](O)C[C@@]21C | inactive | 
7 | Metabolite_Detected | Metabolite_Detected | CCCCC(=O)O[C@]1(C(=O)COC(=O)CCC(=O)Oc2ccc(C(N)=S)cc2)[C@@H](C)C[C@H]2[C@@H]3CCC4=CC(=O)C=C[C@]4(C)[C@@]3(F)[C@@H](O)C[C@@]21C |  | 
8 | Metabolite_Notdetected | Metabolite_Notdetected | CCCCC(=O)O[C@]1(C(=O)COC(=O)CCC(=O)Oc2ccc(-c3cc(=S)ss3)cc2)[C@@H](C)C[C@H]2[C@@H]3CCC4=CC(=O)C=C[C@]4(C)[C@@]3(F)[C@@H](O)C[C@@]21C |  | 
9 | Metabolite_Detected | Metabolite_Notdetected | CC1(C)O[C@@H]2C[C@H]3[C@@H]4CCC5=CC(=O)C=C[C@]5(C)[C@@]4(F)[C@@H](O)C[C@]3(C)[C@]2(C(=O)COC(=O)CCC(=O)Oc2ccc(-c3cc(=S)ss3)cc2)O1 |  | 

Row | SMILES | Drug metabolism [1] | Drug metabolism [2] | inhibition [5] | other results
10 | C=CCSSCC=C [DIALLYLDISULFIDE] |  | Metabolite_Detected |  | 
11 | CC1(C)O[C@@H]2C[C@H]3[C@@H]4CCC5=CC(=O)C=C[C@]5(C)[C@@]4(F)[C@@H](O)C[C@]3(C)[C@]2(C(=O)COC(=O)CCC(=O)Oc2ccc(N=C=S)cc2)O1 | Metabolite_Detected | Metabolite_Detected | Active | fold change (FC) [4]: 4; fold change (FC) [6]: 4; inhibition [7]: Active
12 | CCCCC(=O)O[C@]1(C(=O)COC(=O)CCC(=O)Oc2ccc(N=C=S)cc2)[C@@H](C)C[C@H]2[C@@H]3CCC4=CC(=O)C=C[C@]4(C)[C@@]3(F)[C@@H](O)C[C@@]21C | Metabolite_Detected | Metabolite_Detected | Active | fold change (FC) [4]: 4; fold change (FC) [6]: 4; inhibition [7]: Active
13 | Oc1ccc(N=C=S)cc1 | Metabolite_Detected | Metabolite_Detected |  | Activity [8]: Active; inhibition at 300 µM [9]: 75%; Activity [10]: Active; inhibition at 100 µM [11]: 75%
